The target of test [1] is T1, α7 Receptor (alpha7 nAChR) (Rattus norvegicus, UniProt Q05941).
T1 construct: protein concentration of the rat brain membranes contained in the pellet; tissue Pel-Freeze Biologicals; host or cells: whole male Sprague-Dawley rat brain membranes
Description: Displacement binding of 125I-α-bungarotoxin to rat brain membranes (α7 nAChR). The settings on record: for α7/α4β2 Selectivity (Selectivity factor): Ki for alpha4beta2 binding divided by Ki for alpha7 binding, rat brain; for Enantiomeric Selectivity: given once per enantiomer pair, on the line of the first enantiomer, rat α7 binding. The text has this:
As used herein, the term “selectively binds,” “selective binding,” and cognates thereof refer to anabaseine compounds that preferentially bind one type of nicotinic acetylcholine receptor relative to another type of acetylcholine receptor (e.g., α7 nAChR versus the α4β2 nAChR). Because Ki is an inverse measure of affinity, binding selectivity of a compound for the α7 nAChR versus the α4β2 nAChR is expressed by dividing the Ki for binding to the α4β2 nAChR by the Ki for binding to the α7 nAChR. In one embodiment, a compound of the invention selectively binds α7 nAChR compared to α4β2 nAChR. The selectivity of a compound of the invention for α7 nAChR over α4β2 nAChR is at least 2, 3, 4, 5, 6, 7, 8, 9, 10, 11, 12, 13, 14, 15, or more. In another embodiment, a compound of the invention selectively binds α4β2 nAChR compared to α7 nAChR. The selectivity of a compound of the invention for α4β2 nAChR over α7 nAChR is at least 2, 3, 4, 5, 6, 7, 8, 9, 10, 11, 12, 13, 14, 15, or more. Binding to the α7 and α4β2 nAChR (including relative binding to each of these receptors) can be determined by the skilled artisan using the methods known in the art, in particular in view of the teachings provided herein. In particular, the assays used to determine selective binding are according to Marks and Collins for [^125I]alpha-bungarotoxin experiments (for alpha7 receptor binding) and a modified method by Pabreza et al. for [^3H]cytisine experiments (for α4β2), used as described in US 2009/0215705.
(§1) Whole male Sprague-Dawley rat brains (Pel-Freeze Biologicals, Rogers, Ariz.) were homogenized with a 30 ml Wheaton (location) glass homogenizing tube and pestle in binding saline (120 mM NaCl, 5 mM KCl, 2 mM CaCl2, 1 mM MgCl2, 50 mM Tris-TrisHCl buffer, pH 7.4). After the homogenate was centrifuged at 11,000 rpm (convert to ×G) for a 10 min, the resulting pellet was resuspended in fresh binding saline and homogenized and centrifuged again. A protein assay (BCA, Pierce, Rockford, Ill.) was then performed to obtain the protein concentration of the rat brain membranes contained in the pellet, which was stored at −85° C. before use.
Radioligands used in the displacement binding assays were obtained from Perkin Elmer Life and Analytical Sciences (Boston, Mass.). ^3H-Cytisine was used to selectively bind to alpha4beta2 nAChRs and ^125I-α-bungarotoxin (α-Btx) for alpha? nAChRs. ^3H-Cytisine (34 Ci/mmol) experiments were performed according to Flores et al. (1992) with a few minor alterations, specifically that the incubation time was increased to four hours at 4° C. to assure binding equilibrium. The ^125I-α-Btx (136 Ci/mmol) experiments involved 37° C. incubation for three hours to assure equilibration. Both radioligands were generally tested at final concentrations of 1 nM. Membranes at the above mentioned concentrations were suspended in binding saline containing 2 mg/ml of bovine serum albumin (Sigma, St. Louis, Mo.) to reduce non-specific binding. For each radioligand, nonspecific binding was measured in the presence of a final concentration of 1 mM (S)-nicotine hydrogen tartrate salt (Sigma, St. Louis, Mo.). After incubation, radioligand bound to membranes in 48 tubes was rapidly collected by vacuum filtration using a Brandel cell harvester (Gaithersburg, Md.) and Whatman GF/C glass fiber filters that were pre-soaked in 0.5% polyethylenimine for 45 minutes to reduce nonspecific binding. The radiolabeled membranes were rapidly washed three times with 3 ml ice-cold binding saline to separate bound from free radioligand. Filters containing ^3H-cytisine bound membranes were placed in 20 ml scintillation tubes and suspended in 8 mls of 30% Scintisafe scintillation fluid (Fisher), then counted in a Beckman LS-6500 liquid scintillation counter (Fullerton, Calif.). Filters containing ^125I-α-Btx bound membranes were placed in 4 ml scintillation vials and counted in a Beckman 5500B gamma counter (Fullerton, Calif.). […]

Test [2] concerns the target T2, α4β2 Receptor (alpha4beta2 nAChR) (Rattus norvegicus, UniProt P09483+P12390).
T2 construct: protein concentration of the rat brain membranes contained in the pellet; tissue Pel-Freeze Biologicals; host or cells: whole male Sprague-Dawley rat brain membranes
Description: Displacement binding of 3H-cytisine to rat brain membranes (α4β2 nAChR). As to the method:
as §1
Radioligands used in the displacement binding assays were obtained from Perkin Elmer Life and Analytical Sciences (Boston, Mass.). ^3H-Cytisine was used to selectively bind to alpha4beta2 nAChRs and ^125I-α-bungarotoxin (α-Btx) for alpha? nAChRs. ^3H-Cytisine (34 Ci/mmol) experiments were performed according to Flores et al. (1992) with a few minor alterations, specifically that the incubation time was increased to four hours at 4° C. to assure binding equilibrium. The ^125I-α-Btx (136 Ci/mmol) experiments involved 37° C. incubation for three hours to assure equilibration. Both radioligands were generally tested at final concentrations of 1 nM. Membranes at the above mentioned concentrations were suspended in binding saline containing 2 mg/ml of bovine serum albumin (Sigma, St. Louis, Mo.) to reduce non-specific binding. For each radioligand, nonspecific binding was measured in the presence of a final concentration of 1 mM (S)-nicotine hydrogen tartrate salt (Sigma, St. Louis, Mo.). After incubation, radioligand bound to membranes in 48 tubes was rapidly collected by vacuum filtration using a Brandel cell harvester (Gaithersburg, Md.) and Whatman GF/C glass fiber filters that were pre-soaked in 0.5% polyethylenimine for 45 minutes to reduce nonspecific binding. The radiolabeled membranes were rapidly washed three times with 3 ml ice-cold binding saline to separate bound from free radioligand. Filters containing ^3H-cytisine bound membranes were placed in 20 ml scintillation tubes and suspended in 8 mls of 30% Scintisafe scintillation fluid (Fisher), then counted in a Beckman LS-6500 liquid scintillation counter (Fullerton, Calif.). Filters containing ^125I-α-Btx bound membranes were placed in 4 ml scintillation vials and counted in a Beckman 5500B gamma counter (Fullerton, Calif.).
Displacement assay binding data were analyzed using GraphPad Prism software (San Diego, Calif.). The mean counts per minute values for each concentration of a given compound concentration were obtained from 4 replicates. The data were fitted to a sigmoidal concentration response curve from which the Hill slope (n) and IC50 (X) values were estimated: Y=Bottom+(Top−Bottom)/(1+10^(Log IC50-X)n) Here, Top=maximal specific binding of radioligand at the top of the curve and Bottom=minimum specific binding observed at high concentrations of the displacing ligand. […] Results and Discussion

Setting [3] is: rat brain membranes, 3H-cytisine 1 nM, 4° C. four hours, read-out: α4β2 Receptor Rat Ki.
Where [4] appears, read: rat brain membranes, 125I-α-Btx 1 nM, 37° C. three hours, read-out: α7 Receptor Rat Ki.

pKi: −log10 of the molar value. Read-outs that look alike come from different tables or passages of the source.

T1 sequence (Q05941 23-502): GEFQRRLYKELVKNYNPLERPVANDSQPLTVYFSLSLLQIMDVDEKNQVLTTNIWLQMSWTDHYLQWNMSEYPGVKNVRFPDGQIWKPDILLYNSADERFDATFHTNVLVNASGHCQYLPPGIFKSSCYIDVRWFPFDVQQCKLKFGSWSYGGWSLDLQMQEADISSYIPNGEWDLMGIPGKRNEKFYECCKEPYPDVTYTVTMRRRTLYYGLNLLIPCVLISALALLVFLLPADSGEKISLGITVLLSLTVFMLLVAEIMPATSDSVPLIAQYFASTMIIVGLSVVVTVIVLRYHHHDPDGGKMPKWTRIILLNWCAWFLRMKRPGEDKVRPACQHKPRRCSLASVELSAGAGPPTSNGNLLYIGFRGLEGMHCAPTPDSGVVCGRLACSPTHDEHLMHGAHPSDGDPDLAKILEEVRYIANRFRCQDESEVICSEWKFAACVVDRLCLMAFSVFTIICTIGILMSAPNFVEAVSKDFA
T2 sequence (P09483 31-630): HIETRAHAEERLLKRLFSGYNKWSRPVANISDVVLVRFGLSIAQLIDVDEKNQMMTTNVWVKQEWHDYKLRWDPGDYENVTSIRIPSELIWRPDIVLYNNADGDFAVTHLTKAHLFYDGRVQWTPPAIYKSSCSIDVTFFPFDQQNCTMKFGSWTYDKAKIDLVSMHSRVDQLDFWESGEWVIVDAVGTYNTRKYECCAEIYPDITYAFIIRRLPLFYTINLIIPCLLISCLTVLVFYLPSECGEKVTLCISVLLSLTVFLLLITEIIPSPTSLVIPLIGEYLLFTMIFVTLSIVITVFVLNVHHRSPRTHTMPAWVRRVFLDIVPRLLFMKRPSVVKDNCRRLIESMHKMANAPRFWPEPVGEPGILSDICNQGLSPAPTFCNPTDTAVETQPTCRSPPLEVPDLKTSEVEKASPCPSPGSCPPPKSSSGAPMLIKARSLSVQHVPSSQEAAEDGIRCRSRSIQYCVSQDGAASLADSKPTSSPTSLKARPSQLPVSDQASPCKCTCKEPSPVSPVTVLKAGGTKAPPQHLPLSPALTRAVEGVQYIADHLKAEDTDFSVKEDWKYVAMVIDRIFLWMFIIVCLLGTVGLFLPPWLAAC
T2 sequence (P12390 25-500): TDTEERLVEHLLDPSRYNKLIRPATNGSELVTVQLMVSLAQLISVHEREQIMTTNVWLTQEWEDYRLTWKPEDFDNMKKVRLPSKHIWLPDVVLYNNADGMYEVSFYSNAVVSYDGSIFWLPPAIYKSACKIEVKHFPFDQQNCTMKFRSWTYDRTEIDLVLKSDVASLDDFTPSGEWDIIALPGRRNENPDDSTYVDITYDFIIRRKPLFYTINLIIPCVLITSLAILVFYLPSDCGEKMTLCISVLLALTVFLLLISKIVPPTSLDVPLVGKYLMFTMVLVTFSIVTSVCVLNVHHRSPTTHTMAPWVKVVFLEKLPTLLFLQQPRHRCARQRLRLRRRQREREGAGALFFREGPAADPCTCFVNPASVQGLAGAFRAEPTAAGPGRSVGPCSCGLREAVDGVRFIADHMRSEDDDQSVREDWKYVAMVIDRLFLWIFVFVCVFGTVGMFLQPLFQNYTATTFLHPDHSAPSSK

One may read the pKi as the negative decadic logarithm of the Ki, by convention in mol/L. As to `c1cncc(C2=NCCCC2)c1` [Compound 1, anabaseine, reference compound], in test [1], the pKi is 6.54 and the “α7/α4β2 Selectivity (Selectivity factor)” value is 0.26. Further, in test [2], the pKi is 7.12.
For `COc1ccc(/C=C2\CCCN=C2c2cccnc2)c(OC)c1` [Compound 2, 3-(2,4-dimethoxybenzylidene)-anabaseine, reference compound], in test [1], the “α7/α4β2 Selectivity (Selectivity factor)” value is reported as 1.91.
With `Oc1ccc(C=C2CCCN=C2c2cccnc2)cc1` [Compound 3, reference compound], the “α7/α4β2 Selectivity (Selectivity factor)” value in test [1] worked out at 1.2. Moreover, the pKi in test [2] (setting [3]) was 6.35.
For `COc1ccc(C=C2C(c3cccnc3)=NCC[C@H]2C)c(OC)c1` [Compound 4, 3-(DMXB)-4(R)-methyl-anabaseine], in test [1], the pKi is 7.21, the “α7/α4β2 Selectivity (Selectivity factor)” value amounted to 2.5 and the “Enantiomeric Selectivity” value came out at 2.0. Further, in test [2] (setting [3]), the pKi was 6.82.
Regarding `COc1ccc(/C=C2/C(c3cccnc3)=NCC[C@@H]2C)c(OC)c1` [Compound 5, 3-(2,4-Dimethoxybenzylidene)-4(S)-methyl-anabaseine], the results for the pKi in test [1] and in test [2] (setting [3]) were 6.90 and 6.72, respectively. Further, the “α7/α4β2 Selectivity (Selectivity factor)” value in test [1] is 1.5.
Consider `COc1ccc(C=C2CC(C)CN=C2c2cccnc2)c(OC)c1` (stereo not shown) [Compound 6], for which the “Enantiomeric Selectivity” value in test [1] is listed as 6.8. The pKi in test [1] (setting [4]) was 6.66.
`COc1ccc(C=C2CC(C)CN=C2c2cccnc2)c(OC)c1` (stereo not shown) [Compound 7] showed a pKi in test [1] of 5.82.
On to `COc1ccc(/C=C2\CC[C@H](C)N=C2c2cccnc2)c(OC)c1` [Compound 8, 3-(2,4-Dimethoxybenzylidene)-6(S)-methyl-anabaseine], for which, in test [1], the pKi was 6.68, the “α7/α4β2 Selectivity (Selectivity factor)” value is reported as 2.8 and the “Enantiomeric Selectivity” value is 3.3. The negative-log Ki (pKi) in test [2] (setting [3]) was 6.23.
For `COc1ccc(C=C2CC[C@@H](C)N=C2c2cccnc2)c(OC)c1` [Compound 9, 3-(DMXB)-6(R)-methyl-anabaseine], the pKi in test [1] was 6.40; in test [2] (setting [3]), 6.46. Besides, the “α7/α4β2 Selectivity (Selectivity factor)” value in test [1] was found to be 0.86.
As for `COc1ccc(C=C2C(c3cccnc3)=NC(C)CC2C)c(OC)c1` (stereo not shown) [Compound 10], the “α7/α4β2 Selectivity (Selectivity factor)” value in test [1] was found to be 1.3. In addition, in test [1], the “Enantiomeric Selectivity” value is 11. Also, the pKi was 7.42 in test [1] (setting [4]) and 7.30 in test [2] (setting [3]).
On to `COc1ccc(/C=C2/C(c3cccnc3)=N[C@H](C)C[C@@H]2C)c(OC)c1` [Compound 11], for which the “α7/α4β2 Selectivity (Selectivity factor)” value in test [1] is given as 1.5. In addition, the pKi in test [1] (setting [4]) was 6.39; in test [2] (setting [3]) it was 6.21.
`COc1ccc(/C=C2/C(c3cccnc3)=N[C@H]3CC[C@@H]2C3)c(OC)c1` [Compound 12, (1S,5R,E)-4-(2,4-dimethoxybenzylidene)-3-(pyridin-3-yl)-2-azabicyclo[3.2.1]oct-2-ene]: in test [1], the pKi is 7.79, the “α7/α4β2 Selectivity (Selectivity factor)” value was found to be 13 and the “Enantiomeric Selectivity” value is given as 270. In addition, in test [2] (setting [3]), the pKi is 6.66.
Take `COc1ccc(/C=C2/C(c3cccnc3)=N[C@@H]3CC[C@H]2C3)c(OC)c1` [Compound 13, (1R,5S,E)-4-(2,4-dimethoxybenzylidene)-3-(pyridin-3-yl)-2-azabicyclo[3.2.1]oct-2-ene]: in test [1], the pKi was 5.36 and the “α7/α4β2 Selectivity (Selectivity factor)” value is given as 0.079. Besides, the pKi in test [2] (setting [3]) was 6.46.
Turning to `Oc1ccc(/C=C2/C(c3cccnc3)=N[C@H]3CC[C@@H]2C3)cc1` [Compound 14, 4-((E)-((1S,5R)-3-(pyridin-3-yl)-2-azabicyclo[3.2.1]oct-2-en-4-ylidene)methyl)phenol], the values for the pKi in test [1] and in test [2] were 7.47 and 7.14, respectively. Besides, the “α7/α4β2 Selectivity (Selectivity factor)” value in test [1] is recorded as 2.1.
Regarding `C[C@H]1CC/C(=C\c2ccc(N)cc2)C(c2cccnc2)=N1` [Compound 15, 3-(4-Aminobenzylidene)-6(S)-methyl-anabaseine], in test [1], the pKi is 7.14 and the “α7/α4β2 Selectivity (Selectivity factor)” value turned out to be 4.3. In test [2] (setting [3]), the pKi is 6.50.
For `Nc1ccc(/C=C2/C(c3cccnc3)=N[C@H]3CC[C@@H]2C3)cc1` [Compound 16, 3-(4-Aminobenzylidene)-4(R),6(S)-ethylene-anabaseine], in test [1], the pKi is 8.46 and the “α7/α4β2 Selectivity (Selectivity factor)” value amounted to 9.9. In test [2], this compound showed a negative-log Ki (pKi) of 7.47.

Source of the values: US9150558B2, “Nicotine receptor targeted compounds and compositions” (University of Florida Research Foundation, priority 2011, dated 2015).
